From US8158442B2, “Antagonists of bitter taste receptors and uses thereof” (Deutsches Institut Fuer Ernaehrungsforschung …, priority 2007, dated 2012)

Key:
[1] = biological target: T1, TAS2R38 (Homo sapiens, UniProt P59533, A49P/I296V); assay: Calcium imaging (FLIPR) of TAS2R38-PAV transfected HEK-293T G16gust44 cells, activation by compound alone; type: cell-based
T1 construct: expressed in transfected cells; host or cells: HEK-293T cells stably expressing the chimeric G-protein subunit G16gust44
T1 sequence (P59533 1-333 A49P/I296V): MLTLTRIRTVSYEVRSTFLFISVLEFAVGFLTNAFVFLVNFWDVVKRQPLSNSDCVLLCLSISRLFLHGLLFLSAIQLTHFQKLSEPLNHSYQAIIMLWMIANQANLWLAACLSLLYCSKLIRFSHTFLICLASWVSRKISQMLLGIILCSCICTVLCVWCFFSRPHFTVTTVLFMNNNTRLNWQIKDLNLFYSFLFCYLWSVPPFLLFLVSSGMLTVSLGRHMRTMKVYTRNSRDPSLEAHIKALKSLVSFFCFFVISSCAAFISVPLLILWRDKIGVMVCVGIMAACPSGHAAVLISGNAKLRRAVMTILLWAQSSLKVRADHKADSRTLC
From the text: (§1) Human TAS2R38 cDNAs encoding the PAV form of the receptor was fused with a plasma membrane-targeting sequence of the rat somatostatin type 3 receptor at the N terminus of the recombinant polypeptide and a herpes simplex virus glycoprotein D (HSV) epitope at its C terminus (Bufe B., et al. (2002) Nat Genet 32:397-401). The constructs were transiently transfected into human embryonic kidney (HEK)-293T cells that stably express the chimeric G-protein subunit G16gust44 (Ueda T., et al. (2003) J Neurosci 23:7376-7380) using Lipofectamine 2000 (Invitrogen). They were then seeded at a density of ˜20-30% and transfected at ˜60% confluency in 96-well microtiter plate (Greiner) coated with 10 μg/ml Poly-D-lysine (Sigma-Aldrich). Calcium imaging experiments using an automated fluorometric imaging plate reader (FLIPR) (Molecular Devices) have been performed 24-32 h later essentially as described previously (Bufe B., et al. (2005) Curr. Biol. 15, 322-327). Tastants (Sigma-Aldrich) were dissolved and administered in the following solution: 130 mM NaCl, 5 mM KCl, 10 mM HEPES, 2 mM CaCl2, and 10 mM glucose, pH 7.4. Data were averaged over several independent experiments and processed with SigmaPlot (SPSS). For calculation of dose-response curves, the peak fluorescence responses after addition of compounds were corrected for and normalized to background fluorescence (ΔF/F=(F−F0)/F0), and baseline noise was subtracted.
During the structure-function-analysis of TAS2R38 agonists we identified and tested various compounds that contain an N—C═S moiety, which is a hallmark of TAS2R38 agonists. […] Two other compounds, dimethylthiourea and mercaptobenzimidazole that also have an N—C═S moiety (FIG. 1) could activate the receptor only at low to concentrations (EC50 of 0.5 mM for dimethylthiourea and 1.0 μM for mercaptobenzimidazole). Application of dimethylthiourea in concentrations above 3 mM led to a dose dependant reduction of the signal amplitude (FIG. 2).

[2] = biological target: T1, TAS2R38; assay: Calcium imaging (FLIPR) of TAS2R38 transfected cells, antagonists applied as mixture with TAS2R38 agonists; type: cell-based; conditions: for inhibition of the responses of TAS2R38 agonists: mixture with 0.03 mM PROP, 0.03 mM PTC or 1 mM MET, 20 mM DMTU, 5 mM DETU or 0.1 mM MBI, FIG. 3
From the text: as §1
To test whether dimethylthiourea, diethylthiourea and mercaptobenzimidazole are capable of inhibiting the response of other TAS2R38 agonists we next tested them as mixtures with the structurally divergent TAS2R38 agonists propylthiouracil, phenylthiourea and methimidazole.
To further investigate the mechanism of the inhibition of TAS2R38 we examined the effect of increasing diethylthiourea concentrations on the dose response curves of propylthiouracil and phenylthiourea (FIG. 5). […] Thus, the likeliest explanation for the observed right shift in the EC50 values caused by negative cooperativity of the inhibitor binding site on the agonist binding site of PROP and PTC.

[3] = biological target: T2, hTAS2R16 (Homo sapiens, UniProt Q9NYV7); assay: Calcium imaging of hTAS2R16 transfected cells stimulated with salicin, specificity test; type: cell-based; conditions: 10 mM DMTU, 5 mM DETU or 0.1 mM MBI, FIG. 4
T2 construct: expressed in transfected cells
T2 sequence (Q9NYV7 1-291): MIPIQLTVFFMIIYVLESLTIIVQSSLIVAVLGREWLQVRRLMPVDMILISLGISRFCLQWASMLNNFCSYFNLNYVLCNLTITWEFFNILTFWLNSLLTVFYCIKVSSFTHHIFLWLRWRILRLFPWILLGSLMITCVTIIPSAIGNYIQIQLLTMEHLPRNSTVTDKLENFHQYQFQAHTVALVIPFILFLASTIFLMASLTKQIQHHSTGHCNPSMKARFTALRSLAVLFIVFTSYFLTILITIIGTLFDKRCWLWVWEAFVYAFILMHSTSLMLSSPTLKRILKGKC
From the text: as §1
(§2) In contrast to the observed effects on TAS2R38, the response of cells expressing hTAS2R16 or mTas2r5 to their cognate ligands salicin or cycloheximide was not altered by any of the three TAS2R38 antagonists in concentrations that inhibited response of TAS2R38 (FIG. 4).

[4] = biological target: T3, mTas2r5 (Mus musculus, UniProt Q9JKT4); assay: Calcium imaging of mTas2r5 transfected cells stimulated with cycloheximide, specificity test; type: cell-based, murine; conditions: 10 mM DMTU, 5 mM DETU or 0.1 mM MBI, FIG. 4
T3 construct: expressed in transfected cells
T3 sequence (Q9JKT4 1-300): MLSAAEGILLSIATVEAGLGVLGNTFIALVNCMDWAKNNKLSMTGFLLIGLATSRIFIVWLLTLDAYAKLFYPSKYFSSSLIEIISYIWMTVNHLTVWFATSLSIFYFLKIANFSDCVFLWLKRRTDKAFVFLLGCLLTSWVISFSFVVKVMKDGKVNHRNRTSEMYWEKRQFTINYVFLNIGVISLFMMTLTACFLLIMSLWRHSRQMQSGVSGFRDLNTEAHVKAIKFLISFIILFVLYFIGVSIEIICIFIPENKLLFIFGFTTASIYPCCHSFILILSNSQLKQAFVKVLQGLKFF
From the text: as §1, §2

[5] = TAS2R38-PAV transfected cells, compound alone, FIG. 2, read-out: EC50 (activation of the receptor)

Structure (SMILES)	concentrations at which the compound acts as agonist of hTAS2R38 [1]	EC50 [1, 5] [µM]	concentrations that pronouncedly reduced the response of TAS2R38 receptor expressing cells ([1]; compound alone, FIG. 2)	inhibition of the responses of TAS2R38 agonists [2]	effect on response of hTAS2R16 expressing cells to salicin [3]	effect on response of mTas2r5 expressing cells to cycloheximide [4]	concentrations leading to a dose dependant reduction of the signal amplitude ([1]; TAS2R38 expressing cells, compound alone, FIG. 2)	EC50 ([1]; EC50 (result obtained for propylthiouracil), alone, TAS2R38 transfected cells, FIG. 5) [µM]	EC50 ([1]; EC50 of phenylthiourea, alone, TAS2R38 transfected cells, FIG. 5) [µM]	EC50 ([2]; EC50 (result obtained for propylthiouracil), +0.25 mM diethylthiourea) [µM]	EC50 ([2]; EC50 (result obtained for propylthiouracil), +0.5 mM diethylthiourea) [µM]	EC50 ([2]; EC50 of phenylthiourea, +0.25 mM diethylthiourea) [µM]	EC50 ([2]; EC50 of phenylthiourea, +0.5 mM diethylthiourea) [µM]	activation of the receptor ([1]; TAS2R38-PAV transfected cells, compound alone, FIG. 2)	effect on signal amplitudes of the agonists ([2]; increasing diethylthiourea concentrations, not abolished by increasing agonist concentrations)
Sc1nc2ccccc2[nH]1 [mercaptobenzimidazole, 2-mercaptobenzimidazole]	below 0.01 mM	1	above 10 μM	inhibited the responses of all tested agonist	not altered	not altered									
CNC(=S)NC [dimethylthiourea, N,N′-dimethylthiourea]	below 3 mM	500		inhibited the responses of all tested agonist	not altered	not altered	above 3 mM								
NC(=S)Nc1ccccc1 [phenylthiourea, phenylthiocarbamide, reference compound]								1.1 ± 0.8	1.4 ± 0.9	3.4 ± 2.5	6.3 ± 3.9	2.8 ± 0.8	4.8 ± 1.8		
CCNC(=S)NCC [diethylthiourea, N,N′-diethylthiourea]				inhibited the responses of all tested agonist	not altered	not altered								did not activate the receptor at any tested concentration	pronounced reduction of the signal amplitudes
